Test results taken from publication PMC11007962, “First-in-human study of GFH018, a small molecule inhibitor of transforming growth factor-β receptor I inhibitor, in patients with advanced solid tumors” (BMC Cancer, 2024).
Like-named read-outs stand apart in the source and are kept apart here.

Test system: patients with advanced solid tumors
[1] = 30 mg BID 14d-on/14d-off (N = 7)
[2] = 40 mg BID 14d-on/14d-off (N = 4)
[3] = 50 mg BID 14d-on/14d-off (N = 4)
[4] = 65 mg BID 14d-on/14d-off (N = 6)

Cc1cccc(-c2nn3c(c2-c2ccc4ncnn4c2/C=C/C(N)=O)CCC3)n1 [GFH018]
TEAE: Urine protein present [1]: 0 n (%) | TEAE: White blood cell count decreased [1]: 0 n (%) | TEAE: White blood cells urine positive [1]: 0 n (%) | TRAE: ALP increased [1]: 0 n (%) | TRAE: ALT increased [1]: 2 (28.6%) n (%) | TRAE: AST increased [1]: 2 (28.6%) n (%) | TRAE: Anemia [1]: 0 n (%) | TRAE: GGT increased [1]: 0 n (%) | TRAE: LDH increased [1]: 1 (14.3%) n (%) | TRAE: Lymphocyte count decreased [1]: 1 (14.3%) n (%) | TRAE: Protein urine present [1]: 0 n (%) | TRAE: Proteinuria [1]: 3 (42.9%) n (%) | Treatment-emergent Proteinuria (grouped PTs), G1 [1]: 3 (42.9) n (%) | Treatment-emergent Proteinuria (grouped PTs), G2 [1]: 1 (14.3) n (%) | Treatment-emergent Proteinuria (grouped PTs), G3 [1]: 0 n (%) | Treatment-emergent Proteinuria (grouped PTs: proteinuria and urine protein present), any grade [1]: 4 (57.1) n (%) | At least one TEAE [2]: 4 (100%) n (%) | At least one TRAE [2]: 4 (100%) n (%) | TEAE: ALP increased [2]: 1 (25.0%) n (%) | TEAE: ALT increased [2]: 0 n (%) | TEAE: AST increased [2]: 0 n (%) | TEAE: Abdominal distention [2]: 0 n (%) | TEAE: Abdominal pain [2]: 0 n (%) | TEAE: Anemia [2]: 1 (25.0%) n (%) | TEAE: Asthenia [2]: 1 (25.0%) n (%) | TEAE: Bilirubin conjugated increased [2]: 0 n (%) | TEAE: Blood albumin decreased [2]: 0 n (%) | TEAE: Blood bilirubin increased [2]: 0 n (%) | TEAE: C-reactive protein increased [2]: 0 n (%) | TEAE: Constipation [2]: 0 n (%) | TEAE: Decreased appetite [2]: 0 n (%) | TEAE: GGT increased [2]: 0 n (%) | TEAE: Hypoalbuminemia [2]: 0 n (%) | TEAE: LDH increased [2]: 1 (25.0%) n (%) | TEAE: Lymphocyte count decreased [2]: 0 n (%) | TEAE: Platelet count decreased [2]: 1 (25.0%) n (%) | TEAE: Proteinuria [2]: 0 n (%) | TEAE: Sinus tachycardia [2]: 1 (25.0%) n (%) | TEAE: Urine protein present [2]: 0 n (%) | TEAE: White blood cell count decreased [2]: 0 n (%) | TEAE: White blood cells urine positive [2]: 0 n (%) | TRAE: ALP increased [2]: 1 (25.0%) n (%) | TRAE: ALT increased [2]: 0 n (%) | TRAE: AST increased [2]: 0 n (%) | TRAE: Anemia [2]: 0 n (%) | TRAE: GGT increased [2]: 0 n (%) | TRAE: LDH increased [2]: 1 (25.0%) n (%) | TRAE: Lymphocyte count decreased [2]: 0 n (%) | TRAE: Protein urine present [2]: 0 n (%) | TRAE: Proteinuria [2]: 0 n (%) | Treatment-emergent Proteinuria (grouped PTs), G1 [2]: 0 n (%) | Treatment-emergent Proteinuria (grouped PTs), G2 [2]: 0 n (%) | Treatment-emergent Proteinuria (grouped PTs), G3 [2]: 0 n (%) | Treatment-emergent Proteinuria (grouped PTs: proteinuria and urine protein present), any grade [2]: 0 n (%) | At least one TEAE [3]: 4 (100%) n (%) | At least one TRAE [3]: 2 (50.0%) n (%) | TEAE: ALP increased [3]: 1 (25.0%) n (%) | TEAE: ALT increased [3]: 1 (25.0%) n (%) | TEAE: AST increased [3]: 1 (25.0%) n (%) | TEAE: Abdominal distention [3]: 1 (25.0%) n (%) | TEAE: Abdominal pain [3]: 0 n (%) | TEAE: Anemia [3]: 3 (75.0%) n (%) | TEAE: Asthenia [3]: 0 n (%) | TEAE: Bilirubin conjugated increased [3]: 0 n (%) | TEAE: Blood albumin decreased [3]: 0 n (%) | TEAE: Blood bilirubin increased [3]: 0 n (%) | TEAE: C-reactive protein increased [3]: 0 n (%) | TEAE: Constipation [3]: 0 n (%) | TEAE: Decreased appetite [3]: 1 (25.0%) n (%) | TEAE: GGT increased [3]: 1 (25.0%) n (%) | TEAE: Hypoalbuminemia [3]: 0 n (%) | TEAE: LDH increased [3]: 0 n (%) | TEAE: Lymphocyte count decreased [3]: 0 n (%) | TEAE: Platelet count decreased [3]: 0 n (%) | TEAE: Proteinuria [3]: 0 n (%) | TEAE: Sinus tachycardia [3]: 1 (25.0%) n (%) | TEAE: Urine protein present [3]: 1 (25.0%) n (%) | TEAE: White blood cell count decreased [3]: 0 n (%) | TEAE: White blood cells urine positive [3]: 0 n (%) | TRAE: ALP increased [3]: 1 (25.0%) n (%) | TRAE: ALT increased [3]: 1 (25.0%) n (%) | TRAE: AST increased [3]: 1 (25.0%) n (%) | TRAE: Anemia [3]: 0 n (%) | TRAE: GGT increased [3]: 1 (25.0%) n (%) | TRAE: LDH increased [3]: 0 n (%) | TRAE: Lymphocyte count decreased [3]: 0 n (%) | TRAE: Protein urine present [3]: 1 (25.0%) n (%) | TRAE: Proteinuria [3]: 0 n (%) | Treatment-emergent Proteinuria (grouped PTs), G1 [3]: 1 (25.0) n (%) | Treatment-emergent Proteinuria (grouped PTs), G2 [3]: 0 n (%) | Treatment-emergent Proteinuria (grouped PTs), G3 [3]: 0 n (%) | Treatment-emergent Proteinuria (grouped PTs: proteinuria and urine protein present), any grade [3]: 1 (25.0) n (%) | At least one TEAE [4]: 5 (83.3%) n (%) | At least one TRAE [4]: 5 (83.3%) n (%) | TEAE: ALP increased [4]: 0 n (%) | TEAE: ALT increased [4]: 0 n (%) | TEAE: AST increased [4]: 2 (33.3%) n (%) | TEAE: Abdominal distention [4]: 0 n (%) | TEAE: Abdominal pain [4]: 1 (16.7%) n (%) | TEAE: Anemia [4]: 3 (50.0%) n (%) | TEAE: Asthenia [4]: 0 n (%) | TEAE: Bilirubin conjugated increased [4]: 0 n (%) | TEAE: Blood albumin decreased [4]: 0 n (%) | TEAE: Blood bilirubin increased [4]: 1 (16.7%) n (%) | TEAE: C-reactive protein increased [4]: 0 n (%) | TEAE: Constipation [4]: 1 (16.7%) n (%) | TEAE: Decreased appetite [4]: 1 (16.7%) n (%) | TEAE: GGT increased [4]: 1 (16.7%) n (%) | TEAE: Hypoalbuminemia [4]: 0 n (%) | TEAE: LDH increased [4]: 0 n (%) | TEAE: Lymphocyte count decreased [4]: 0 n (%) | TEAE: Platelet count decreased [4]: 1 (16.7%) n (%) | TEAE: Proteinuria [4]: 1 (16.7%) n (%) | TEAE: Sinus tachycardia [4]: 2 (33.3%) n (%) | TEAE: Urine protein present [4]: 1 (16.7%) n (%) | TEAE: White blood cell count decreased [4]: 2 (33.3%) n (%) | TEAE: White blood cells urine positive [4]: 1 (16.7%) n (%) | TRAE: ALP increased [4]: 0 n (%) | TRAE: ALT increased [4]: 0 n (%) | TRAE: AST increased [4]: 2 (33.3%) n (%) | TRAE: Anemia [4]: 2 (33.3%) n (%) | TRAE: GGT increased [4]: 0 n (%) | TRAE: LDH increased [4]: 0 n (%) | TRAE: Lymphocyte count decreased [4]: 0 n (%) | TRAE: Protein urine present [4]: 0 n (%) | TRAE: Proteinuria [4]: 1 (16.7%) n (%) | Treatment-emergent Proteinuria (grouped PTs), G1 [4]: 1 (16.7) n (%) | Treatment-emergent Proteinuria (grouped PTs), G2 [4]: 1 (16.7) n (%) | Treatment-emergent Proteinuria (grouped PTs), G3 [4]: 0 n (%) | Treatment-emergent Proteinuria (grouped PTs: proteinuria and urine protein present), any grade [4]: 2 (33.3) n (%) | safety profile of 7 d-on/7 d-off versus 14 d-on/14 d-off regimen (85 mg BID): not significantly different | At least one TEAE (85 mg BID 7d-on/7d-off (N = 6)): 5 (83.3%) n (%) | At least one TEAE (Table S3) (85 mg BID 7d-on/7d-off (N = 6)): 5 (83.3%) n (%) | At least one TRAE (85 mg BID 7d-on/7d-off (N = 6)): 3 (50.0%) n (%) | TEAE: ALP increased (85 mg BID 7d-on/7d-off (N = 6)): 1 (16.7%) n (%) | TEAE: ALT increased (85 mg BID 7d-on/7d-off (N = 6)): 0 n (%)
